Assays:
Format in all cases: cell-based
human TLR7 = target: T1, human TLR7 (Homo sapiens, UniProt Q9NYK1); test: TLR7 inhibition reporter assay (HEK-Blue cells, SEAP reporter, gardiquimod stimulation); conditions: HEK-Blue cells overexpressing human TLR7, SEAP reporter, gardiquimod 7.5 μM
T1 construct: host or cells: HEK-Blue cells
T1 sequence (Q9NYK1 27-1049): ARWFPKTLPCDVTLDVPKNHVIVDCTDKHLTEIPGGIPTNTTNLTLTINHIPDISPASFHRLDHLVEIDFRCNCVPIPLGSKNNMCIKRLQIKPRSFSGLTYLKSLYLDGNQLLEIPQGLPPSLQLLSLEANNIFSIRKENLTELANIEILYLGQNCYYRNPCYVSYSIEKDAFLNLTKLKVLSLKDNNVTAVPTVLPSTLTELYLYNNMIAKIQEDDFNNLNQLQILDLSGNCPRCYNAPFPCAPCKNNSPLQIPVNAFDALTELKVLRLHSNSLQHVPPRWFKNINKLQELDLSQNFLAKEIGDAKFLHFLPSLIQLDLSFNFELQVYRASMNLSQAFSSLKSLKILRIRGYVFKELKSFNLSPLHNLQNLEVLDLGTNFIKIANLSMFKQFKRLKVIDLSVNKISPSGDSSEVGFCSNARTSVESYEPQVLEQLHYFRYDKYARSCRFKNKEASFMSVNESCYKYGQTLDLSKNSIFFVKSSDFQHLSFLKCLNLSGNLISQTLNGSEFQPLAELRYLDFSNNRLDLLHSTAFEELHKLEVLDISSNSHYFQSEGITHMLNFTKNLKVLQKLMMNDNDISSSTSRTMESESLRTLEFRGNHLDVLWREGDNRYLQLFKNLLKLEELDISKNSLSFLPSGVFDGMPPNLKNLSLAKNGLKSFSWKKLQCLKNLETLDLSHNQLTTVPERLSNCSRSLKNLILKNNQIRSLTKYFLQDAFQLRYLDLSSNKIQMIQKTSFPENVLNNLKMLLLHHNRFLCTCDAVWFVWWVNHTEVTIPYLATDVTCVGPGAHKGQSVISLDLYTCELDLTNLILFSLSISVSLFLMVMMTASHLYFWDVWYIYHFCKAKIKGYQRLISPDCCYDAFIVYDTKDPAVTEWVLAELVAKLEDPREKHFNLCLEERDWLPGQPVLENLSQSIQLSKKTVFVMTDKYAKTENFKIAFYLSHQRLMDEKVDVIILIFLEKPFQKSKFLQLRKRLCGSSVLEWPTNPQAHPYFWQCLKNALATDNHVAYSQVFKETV
How it was run: (§1)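 Percent inhibition is derived from SEAP signal, scaled between agonist-plus-DMSO wells and wells given a known inhibitor. Test compounds (0.05 nM–50 μM) are pre-incubated 30 min at room temperature before agonist addition (TLR7: 7.5 μM gardiquimod; TLR8: 15.9 μM R848; TLR9: 5 nM ODN2006) and 22 h culture at 37 °C.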

human TLR9 = target: T2, human TLR9 (Homo sapiens, UniProt Q9NR96); test: TLR9 inhibition reporter assay (HEK-Blue cells, SEAP reporter, ODN2006 stimulation); conditions: HEK-Blue cells overexpressing human TLR9, SEAP reporter, ODN2006 5 nM
T2 construct: host or cells: HEK-Blue cells
T2 sequence (Q9NR96 26-1032): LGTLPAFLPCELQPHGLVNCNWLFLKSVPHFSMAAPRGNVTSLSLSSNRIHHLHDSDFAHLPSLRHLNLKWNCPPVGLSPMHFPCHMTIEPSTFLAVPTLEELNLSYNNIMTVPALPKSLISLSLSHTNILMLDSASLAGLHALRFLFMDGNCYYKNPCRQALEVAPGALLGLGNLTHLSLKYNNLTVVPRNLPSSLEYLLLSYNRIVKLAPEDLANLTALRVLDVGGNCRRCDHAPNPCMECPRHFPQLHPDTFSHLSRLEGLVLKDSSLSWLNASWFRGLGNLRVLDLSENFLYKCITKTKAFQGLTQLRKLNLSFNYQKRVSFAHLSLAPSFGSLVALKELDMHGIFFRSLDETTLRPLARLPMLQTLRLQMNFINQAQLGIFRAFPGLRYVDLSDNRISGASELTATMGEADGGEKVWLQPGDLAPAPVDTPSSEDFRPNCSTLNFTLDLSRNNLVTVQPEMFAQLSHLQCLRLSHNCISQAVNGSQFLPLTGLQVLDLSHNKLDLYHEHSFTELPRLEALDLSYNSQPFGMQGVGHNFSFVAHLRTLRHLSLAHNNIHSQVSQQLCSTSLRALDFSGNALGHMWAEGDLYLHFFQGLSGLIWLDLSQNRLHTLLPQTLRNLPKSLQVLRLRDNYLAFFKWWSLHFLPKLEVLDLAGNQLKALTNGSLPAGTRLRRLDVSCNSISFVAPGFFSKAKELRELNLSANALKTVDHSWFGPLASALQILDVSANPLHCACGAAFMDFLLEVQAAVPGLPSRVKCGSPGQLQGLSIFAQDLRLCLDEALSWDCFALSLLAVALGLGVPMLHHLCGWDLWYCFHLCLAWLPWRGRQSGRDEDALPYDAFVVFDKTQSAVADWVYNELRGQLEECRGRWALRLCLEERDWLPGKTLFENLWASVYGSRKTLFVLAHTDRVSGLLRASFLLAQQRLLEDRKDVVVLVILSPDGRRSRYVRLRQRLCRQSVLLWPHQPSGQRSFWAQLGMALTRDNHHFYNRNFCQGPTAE
How it was run: as §1

human TLR8 = target: T3, human TLR8 (Homo sapiens, UniProt Q9NR97); test: TLR8 inhibition reporter assay (HEK-Blue cells, SEAP reporter, R848 stimulation); conditions: HEK-Blue cells overexpressing human TLR8, SEAP reporter, R848 15.9 μM
T3 construct: host or cells: HEK-Blue cells
T3 sequence (Q9NR97 27-1041): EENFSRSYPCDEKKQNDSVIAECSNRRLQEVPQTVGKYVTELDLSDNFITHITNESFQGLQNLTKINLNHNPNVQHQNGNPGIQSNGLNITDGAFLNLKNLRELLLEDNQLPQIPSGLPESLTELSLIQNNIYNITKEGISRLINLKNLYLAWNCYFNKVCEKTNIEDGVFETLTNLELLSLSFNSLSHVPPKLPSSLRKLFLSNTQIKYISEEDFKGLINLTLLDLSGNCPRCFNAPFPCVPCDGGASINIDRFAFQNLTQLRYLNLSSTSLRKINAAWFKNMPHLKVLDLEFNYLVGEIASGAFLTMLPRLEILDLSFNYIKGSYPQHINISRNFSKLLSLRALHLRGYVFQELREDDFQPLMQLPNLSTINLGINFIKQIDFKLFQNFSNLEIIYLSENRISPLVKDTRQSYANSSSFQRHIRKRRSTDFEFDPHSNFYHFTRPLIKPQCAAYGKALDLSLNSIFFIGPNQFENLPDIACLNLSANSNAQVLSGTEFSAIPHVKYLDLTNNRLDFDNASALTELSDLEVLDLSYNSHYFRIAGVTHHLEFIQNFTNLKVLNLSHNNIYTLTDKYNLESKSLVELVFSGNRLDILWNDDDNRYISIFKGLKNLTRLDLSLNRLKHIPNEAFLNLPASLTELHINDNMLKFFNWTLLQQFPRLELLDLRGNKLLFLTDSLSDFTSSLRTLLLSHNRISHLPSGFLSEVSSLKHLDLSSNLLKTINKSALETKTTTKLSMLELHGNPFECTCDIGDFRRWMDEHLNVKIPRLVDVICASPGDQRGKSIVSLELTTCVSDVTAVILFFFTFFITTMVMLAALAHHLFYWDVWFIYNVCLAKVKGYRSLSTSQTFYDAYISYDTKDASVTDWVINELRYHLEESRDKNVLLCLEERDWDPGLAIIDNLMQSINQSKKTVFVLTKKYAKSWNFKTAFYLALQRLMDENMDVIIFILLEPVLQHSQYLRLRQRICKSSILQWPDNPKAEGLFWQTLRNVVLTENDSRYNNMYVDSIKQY
How it was run: as §1

SMILES	IC50 (human TLR7) [µM]	IC50 (human TLR9) [µM]	IC50 (human TLR8) [µM]
Cc1c(-c2[nH]c3ccc(C4CC(N)C4)cc3c2C(C)C)cn(C)c(=O)c1C (stereo not drawn) [Example 493]	0.016	4.2	0.0046
Cc1c(-c2[nH]c3ccc(C4CC(NCCS(C)(=O)=O)C4)cc3c2C(C)C)cn(C)c(=O)c1C (stereo not drawn) [Example 494]	0.005	12	0.00048
Cc1c(-c2[nH]c3ccc(C4CC(NCCS(C)(=O)=O)C4)cc3c2C(C)C)cn(C)c(=O)c1C (stereo not drawn) [Example 495]	0.038	20.7	0.0013
Cc1c(-c2[nH]c3ccc(C4CC(NC5COC5)C4)cc3c2C(C)C)cn(C)c(=O)c1C (stereo not drawn) [Example 496]	0.057	> 50	0.0043
Cc1cc(-c2[nH]c3ccc(C4CCC(N5CCOCC5)CC4)cc3c2C(C)C)cc(C)n1 (stereo not drawn) [Example 497]	0.001	0.649	0.0023
Cc1cc(-c2[nH]c3ccc(C4CCC(N5CCOCC5)CC4)cc3c2C(C)C)cc(C)n1 (stereo not drawn) [Example 498]	0.005	0.531	0.018
Cc1c(-c2[nH]c3ccc(C4CN(CC5CCOC5)C4)cc3c2C(C)C)cn(C)c(=O)c1Cl (stereo not drawn) [Example 499]	0.043	9.97	0.025
CCCN1CC(c2ccc3[nH]c(-c4cn(C)c(=O)c(Cl)c4C)c(C(C)C)c3c2)C1 [Example 500]	0.016	5.37	0.013
CC(C)c1c(-c2ccnc3[nH]ncc23)[nH]c2ccc(C3CCCNCC3)cc12 (stereo not drawn) [Example 501]	0.012	0.739	0.0043
CC(C)c1c(-c2ccnc3[nH]ncc23)[nH]c2ccc(C3CCC(OC4CCNCC4)CC3)cc12 (stereo not drawn) [Example 502]	0.071	0.313	0.023
Cc1cc(-c2[nH]c3ccc(C4CCC(OC5CCNCC5)CC4)cc3c2C(C)C)ccn1 (stereo not drawn) [Example 503]	0.028	2.86	0.044
CC(C)c1c(-c2ccnc3[nH]ncc23)[nH]c2ccc(C3CCC(Oc4ccncc4)CC3)cc12 (stereo not drawn) [Example 504]	0.098	5.01	0.162
CC(C)c1c(-c2ccnc3[nH]ncc23)[nH]c2ccc(C3CCC(Oc4ccncc4)CC3)cc12 (stereo not drawn) [Example 505]	0.347	13.9	0.774
Cc1c(-c2[nH]c3ccc(C4CC5CNCC5C4)cc3c2C(C)C)cn2ncnc2c1C (stereo not drawn) [Example 506]	0.001	6.59	0.021
Cc1c(-c2[nH]c3ccc(C4CC5CN(CC(=O)N(C)C)CC5C4)cc3c2C(C)C)cn2ncnc2c1C (stereo not drawn) [Example 507]	0.003	8.18	0.014
COc1cc(-c2[nH]c3ccc(C4CC5CNCC5C4)cc3c2C(C)C)cn2ncnc12 (stereo not drawn) [Example 508]	0.00043	1.49	0.011
COc1cc(-c2[nH]c3ccc(C4CC5CN(CC(=O)N(C)C)CC5C4)cc3c2C(C)C)cn2ncnc12 (stereo not drawn) [Example 509]	0.00027	2.34	0.0024
CNC(=O)CN1CC2CC(c3ccc4[nH]c(-c5cn6ncnc6c(C)c5C)c(C(C)C)c4c3)CC2C1 (stereo not drawn) [Example 510]	0.002	20.7	0.012
Cc1c(-c2[nH]c3ccc(C4CC5CN(CC(N)=O)CC5C4)cc3c2C(C)C)cn2ncnc2c1C (stereo not drawn) [Example 511]	0.00094	12.3	0.0061
Cc1c(-c2[nH]c3ccc(C4CC5CN(CC#N)CC5C4)cc3c2C(C)C)cn2ncnc2c1C (stereo not drawn) [Example 512]	0.003	16.3	0.015
COc1cc(-c2[nH]c3ccc(C4CC5CN(C6COC6)CC5C4)cc3c2C(C)C)cn2ncnc12 (stereo not drawn) [Example 513]	0.00096	12.5	0.02
Cc1c(-c2[nH]c3ccc(C4CC5CN(CCS(C)(=O)=O)CC5C4)cc3c2C(C)C)cn2ncnc2c1C (stereo not drawn) [Example 514]	0.001	15.7	0.018
Cc1c(-c2[nH]c3ccc(C4CCC(N)CC4)cc3c2C(C)C)cn2cnnc2c1C (stereo not drawn) [Example 515]	0.006	1.23	0.059
Cc1c(-c2[nH]c3ccc(C4CCC(N)CC4)cc3c2C(C)C)cn2cnnc2c1C (stereo not drawn) [Example 516]	0.003	0.707	0.013
Cc1c(-c2[nH]c3ccc(C4CCC(NCC(=O)N(C)C)CC4)cc3c2C(C)C)cn2cnnc2c1C (stereo not drawn) [Example 517]	0.005	2.46	0.042
Cc1c(-c2[nH]c3ccc(C4CCC(NCC(=O)N(C)C)CC4)cc3c2C(C)C)cn2cnnc2c1C (stereo not drawn) [Example 518]	0.002	1.31	0.016
Cc1c(-c2[nH]c3ccc(C4CC5CNCC5C4)cc3c2C(C)C)cn2cnnc2c1C (stereo not drawn) [Example 519]	0.006	2.51	0.127
